What was measured:
[1] = In vitro digestion of prodrugs by porcine pancreatin in simulated intestinal fluid (SIF); format: in vitro ADME; conditions: for MG intermediate detected in SIF: after 30 min incubation; for half-life at 1.96 µg/ml: pig, pH 6.5, SIF with porcine pancreatin, read-out: apparent half-life of MG intermediate in SIF
Description: Briefly, the lipase solution was prepared by dispersion of porcine pancreatin (10,000 IU/ml) in a lipolysis buffer (pH 6.5) containing tris-maleate (2 mM), CaCl2 (1.4 mM) and NaCl (150 mM), followed by centrifugation at 2,000 g for 15 min at 5°C to provide the lipase solution as the supernatant. To start the hydrolysis, 100 µl of the lipase solution was added to a mixture of 20 µl of prodrug solution (0.1 mg/ml dissolved in acetonitrile) and 900 µl of simulated intestinal micellar solution (3 mM of sodium taurodeoxycholate and 0.75 mM of phosphatidylcholine dispersed in lipolysis buffer). The solution was incubated at 37°C. Samples (20 µl) of the incubation solution were taken at 0, 5, 10, 15, 30, 60, 90, 120 and 180 min post incubation and added to 180 µl of acetonitrile to stop lipolysis. The mixture was vortexed and centrifuged at 4,500 g for 5 min to precipitate proteins prior to analysis. The supernatant was analysed by HPLC-MS/MS for the potential products (Figure 1) of prodrug hydrolysis as described in the Supplementary Material.
(§1) Absolute quantification of the hydrolysis products, i.e., MG derivatives and BUP-linker-COOH forms (“acid” forms) was not attempted due to lack of authentic standards. Instead, the profiles for these species were plotted based on the peak areas obtained from HPLC-MS. […] To illustrate changes to the BUP-linker-acid forms, the relative changes were plotted as the peak areas on the right-hand Y axis in Figures 3 and 5.

[2] = In vitro incubation of prodrugs with LPL supplemented rat plasma; format: in vitro ADME, Sprague Dawley rat; conditions: over 3 h
Description: […] is tethered to the luminal surface of vascular endothelial cells under physiological conditions ([Bensadoun 1991]). In the current in vitro studies, rat plasma was therefore supplemented with LPL to better reflect the in vivo situation. To start hydrolysis, 10 µl of LPL solution (10,000 IU/ml) was added to a mixture of 10 µl of prodrug solution (0.1 mg/ml dissolved in acetonitrile) and 500 µl of blank Sprague Dawley rat plasma. The solution was incubated at 37°C. Samples (20 µl) of the incubation solution were taken at 0, 5, 15, 30, 60, 90, 120 and 180 min post incubation and added to 180 µl of ACN to stop lipolysis. The mixture was vortexed and centrifuged at 4,500 g for 5 min to precipitate proteins prior to analysis.
as §1

[3] = set-up: method as in earlier work; conditions: ref Tauber, Schroder, Dusterberg and Matthes 1986b; Shackleford et al., 2003; cited from earlier work

Row | SMILES | BUP-linker-acid form detected in plasma [2] | MG intermediate detected in SIF [1] | half-life at 1.96 µg/ml [1] | also measured
1 | CO[C@]12CC[C@@]3(C[C@@H]1[C@](C)(O)C(C)(C)C)[C@H]1Cc4ccc(OC(=O)CC(C)(C)c5c(C)cc(C)cc5OC(=O)CC(C)CC(=O)OC(CO)CO)c5c4[C@@]3(CCN1CC1CC1)[C@H]2O5 (stereo partly drawn) [BUP-TML-C5bMe-MG] | no BUP-linker-acid forms were detected | – | – | MG intermediate remaining in SIF ([1]; at the end of the 3 h incubation, relative peak area): more than 80%
2 | CO[C@]12CC[C@@]3(C[C@@H]1[C@](C)(O)C(C)(C)C)[C@H]1Cc4ccc(OC(=O)CCC(=O)OC(CO)CO)c5c4[C@@]3(CCN1CC1CC1)[C@H]2O5 [BUP-C4-MG] | no BUP-linker-acid forms were detected | only trace quantities | < 10 min | –
3 | CO[C@]12CC[C@@]3(C[C@@H]1[C@](C)(O)C(C)(C)C)[C@H]1Cc4ccc(OC(=O)CC(C)CC(=O)OC(CO)CO)c5c4[C@@]3(CCN1CC1CC1)[C@H]2O5 (stereo partly drawn) [BUP-C5bMe-MG] | no BUP-linker-acid forms were detected | – | > 60 min | –
4 | CO[C@]12CC[C@@]3(C[C@@H]1[C@](C)(O)C(C)(C)C)[C@H]1Cc4ccc(OC(=O)CC(C)(C)c5c(C)cc(C)cc5OC(=O)CCC(=O)OC(CO)CO)c5c4[C@@]3(CCN1CC1CC1)[C@H]2O5 [BUP-TML-C4-MG] | no BUP-linker-acid forms were detected | – | – | MG intermediate remaining in simulated GI fluids ([1]; after 2 h): more than half
5 | CCCCCCCCCCC(=O)O[C@H]1CC[C@H]2[C@@H]3CCC4=CC(=O)CC[C@]4(C)[C@H]3CC[C@]12C [testosterone undecanoate] | – | – | – | oral bioavailability for TST [3]: ~5%
6 | CO[C@]12CC[C@@]3(C[C@@H]1[C@](C)(O)C(C)(C)C)[C@H]1Cc4ccc(OC(=O)CCCCOC(=O)CCC(=O)OC(CO)CO)c5c4[C@@]3(CCN1CC1CC1)[C@H]2O5 [BUP-CE-C4-MG] | transiently detected | only trace quantities | – | –

— publication PMC9039622 (Frontiers in Pharmacology, 2022)
